Assay results taken from ChEMBL document CHEMBL5518248, “Design, Synthesis, and Biological Evaluation of Novel Arylomycins against Multidrug-Resistant Gram-Negative Bacteria” (J Med Chem, 2024).

What was measured:
Format in all cases: functional
Conditions in all cases: time 18-20 hrs
Acinetobacter baumannii [1] = assay: Antibacterial activity against Acinetobacter baumannii 17-8 assessed as inhibition of bacterial growth measured after 18 to 20 hrs by broth microdilution method
Klebsiella pneumoniae [2] = assay: Antibacterial activity against Klebsiella pneumoniae 15-1 assessed as inhibition of bacterial growth measured after 18 to 20 hrs by broth microdilution method
Escherichia coli [3] = assay: Antibacterial activity against Escherichia coli 14-4 assessed as inhibition of bacterial growth measured after 18 to 20 hrs by broth microdilution method
Escherichia coli [4] = assay: Antibacterial activity against Escherichia coli 14-2 assessed as inhibition of bacterial growth measured after 18 to 20 hrs by broth microdilution method
Pseudomonas aeruginosa [5] = assay: Antibacterial activity against Pseudomonas aeruginosa 19-5 assessed as inhibition of bacterial growth measured after 18 to 20 hrs by broth microdilution method
Klebsiella pneumoniae [6] = assay: Antibacterial activity against Klebsiella pneumoniae 15-5 assessed as inhibition of bacterial growth measured after 18 to 20 hrs by broth microdilution method
Escherichia coli [7] = assay: Antibacterial activity against Escherichia coli ATCC 35218 assessed as inhibition of bacterial growth measured after 18 to 20 hrs by broth microdilution method
Pseudomonas aeruginosa [8] = assay: Antibacterial activity against Pseudomonas aeruginosa 17-1 assessed as inhibition of bacterial growth measured after 18 to 20 hrs by broth microdilution method
Acinetobacter baumannii [9] = assay: Antibacterial activity against Acinetobacter baumannii 17-2 assessed as inhibition of bacterial growth measured after 18 to 20 hrs by broth microdilution method
Klebsiella pneumoniae [10] = assay: Antibacterial activity against Klebsiella pneumoniae 15-4 assessed as inhibition of bacterial growth measured after 18 to 20 hrs by broth microdilution method

## Cc1nc(-c2ccc(CCSSC(C)(C)C)cc2)ncc1C(=O)N[C@@H](CCN)C(=O)N(C)[C@@H]1C(=O)N[C@@H](C)C(=O)N[C@H](C(=O)NCC#N)Cc2ccc(OCCN)c(c2)-c2cc1ccc2OCCN.O=C(O)C(F)(F)F.O=C(O)C(F)(F)F.O=C(O)C(F)(F)F.O=C(O)C(F)(F)F
Acinetobacter baumannii [1]
  MIC: 0.5 µg/mL
Klebsiella pneumoniae [2]
  MIC: 0.06 µg/mL
Escherichia coli [3]
  MIC: ≤ 0.03 µg/mL
Escherichia coli [4]
  MIC: ≤ 0.03 µg/mL
Pseudomonas aeruginosa [5]
  MIC: 4 µg/mL
Klebsiella pneumoniae [6]
  MIC: ≤ 0.03 µg/mL
Escherichia coli [7]
  MIC: ≤ 0.03 µg/mL
Pseudomonas aeruginosa [8]
  MIC: 4 µg/mL
Acinetobacter baumannii [9]
  MIC: 0.25 µg/mL
Klebsiella pneumoniae [10]
  MIC: 0.125 µg/mL

## CCCCCSSc1ccc(-c2ncc(C(=O)N[C@@H](CCN)C(=O)N(C)[C@@H]3C(=O)N[C@@H](C)C(=O)N[C@H](C(=O)NCC#N)Cc4ccc(OCCN)c(c4)-c4cc3ccc4OCCN)c(C)n2)cc1.O=C(O)C(F)(F)F.O=C(O)C(F)(F)F.O=C(O)C(F)(F)F.O=C(O)C(F)(F)F
Acinetobacter baumannii [1]
  MIC: 1 µg/mL
Klebsiella pneumoniae [2]
  MIC: 1 µg/mL
Escherichia coli [3]
  MIC: 0.25 µg/mL
Escherichia coli [4]
  MIC: 0.25 µg/mL
Pseudomonas aeruginosa [5]
  MIC: 4 µg/mL
Klebsiella pneumoniae [6]
  MIC: 0.5 µg/mL
Escherichia coli [7]
  MIC: 0.5 µg/mL
Pseudomonas aeruginosa [8]
  MIC: 4 µg/mL
Acinetobacter baumannii [9]
  MIC: 2 µg/mL
Klebsiella pneumoniae [10]
  MIC: 0.5 µg/mL

## Cc1cc(-c2ncc(C(=O)N[C@@H](CCN)C(=O)N(C)[C@@H]3C(=O)N[C@@H](C)C(=O)N[C@H](C(=O)NCC#N)Cc4ccc(OCCN)c(c4)-c4cc3ccc4OCCN)c(C)n2)ccc1CSSC(C)(C)C.O=C(O)C(F)(F)F.O=C(O)C(F)(F)F.O=C(O)C(F)(F)F.O=C(O)C(F)(F)F
Acinetobacter baumannii [1]
  MIC: 1 µg/mL
Klebsiella pneumoniae [2]
  MIC: 0.125 µg/mL
Escherichia coli [3]
  MIC: 0.06 µg/mL
Escherichia coli [4]
  MIC: 0.125 µg/mL
Pseudomonas aeruginosa [5]
  MIC: 4 µg/mL
Klebsiella pneumoniae [6]
  MIC: 0.25 µg/mL
Escherichia coli [7]
  MIC: ≤ 0.03 µg/mL
Pseudomonas aeruginosa [8]
  MIC: 4 µg/mL
Acinetobacter baumannii [9]
  MIC: 1 µg/mL
Klebsiella pneumoniae [10]
  MIC: 0.25 µg/mL

## Cc1nc(-c2ccc(C(C)(C)C)cc2)ncc1C(=O)C(=O)N[C@@H](CCN)C(=O)N(C)[C@@H]1C(=O)N[C@@H](C)C(=O)N[C@H](C(=O)NCC#N)Cc2ccc(OCCN)c(c2)-c2cc1ccc2OCCN.O=C(O)C(F)(F)F.O=C(O)C(F)(F)F.O=C(O)C(F)(F)F.O=C(O)C(F)(F)F
Acinetobacter baumannii [1]
  MIC: 1 µg/mL
Klebsiella pneumoniae [2]
  MIC: 8 µg/mL
Escherichia coli [3]
  MIC: 2 µg/mL
Escherichia coli [4]
  MIC: 2 µg/mL
Pseudomonas aeruginosa [5]
  MIC: 64 µg/mL
Klebsiella pneumoniae [6]
  MIC: 8 µg/mL
Escherichia coli [7]
  MIC: 2 µg/mL
Pseudomonas aeruginosa [8]
  MIC: 32 µg/mL
Acinetobacter baumannii [9]
  MIC: 4 µg/mL
Klebsiella pneumoniae [10]
  MIC: 16 µg/mL

## CSSc1ccc(-c2ncc(C(=O)N[C@@H](CCN)C(=O)N(C)[C@@H]3C(=O)N[C@@H](C)C(=O)N[C@H](C(=O)NCC#N)Cc4ccc(OCCN)c(c4)-c4cc3ccc4OCCN)c(C)n2)cc1.O=C(O)C(F)(F)F.O=C(O)C(F)(F)F.O=C(O)C(F)(F)F.O=C(O)C(F)(F)F
Acinetobacter baumannii [1]
  MIC: 2 µg/mL
Klebsiella pneumoniae [2]
  MIC: 0.5 µg/mL
Escherichia coli [3]
  MIC: 0.5 µg/mL
Escherichia coli [4]
  MIC: 0.5 µg/mL
Pseudomonas aeruginosa [5]
  MIC: 16 µg/mL
Klebsiella pneumoniae [6]
  MIC: 1 µg/mL
Escherichia coli [7]
  MIC: 0.25 µg/mL
Pseudomonas aeruginosa [8]
  MIC: 16 µg/mL
Acinetobacter baumannii [9]
  MIC: 4 µg/mL
Klebsiella pneumoniae [10]
  MIC: 1 µg/mL

## CSCCSSCc1ccc(-c2ncc(C(=O)N[C@@H](CCN)C(=O)N(C)[C@@H]3C(=O)N[C@@H](C)C(=O)N[C@H](C(=O)NCC#N)Cc4ccc(OCCN)c(c4)-c4cc3ccc4OCCN)c(C)n2)cc1.O=C(O)C(F)(F)F.O=C(O)C(F)(F)F.O=C(O)C(F)(F)F.O=C(O)C(F)(F)F
Acinetobacter baumannii [1]
  MIC: 1 µg/mL
Klebsiella pneumoniae [2]
  MIC: 0.5 µg/mL
Escherichia coli [3]
  MIC: 0.25 µg/mL
Escherichia coli [4]
  MIC: 0.25 µg/mL
Pseudomonas aeruginosa [5]
  MIC: 16 µg/mL
Klebsiella pneumoniae [6]
  MIC: 0.25 µg/mL
Escherichia coli [7]
  MIC: 0.125 µg/mL
Pseudomonas aeruginosa [8]
  MIC: 32 µg/mL
Acinetobacter baumannii [9]
  MIC: 2 µg/mL
Klebsiella pneumoniae [10]
  MIC: 0.5 µg/mL

## Cc1nc(-c2ccc(CSSC(C)(C)C)cc2)nc(C)c1C(=O)N[C@@H](CCN)C(=O)N(C)[C@@H]1C(=O)N[C@@H](C)C(=O)N[C@H](C(=O)NCC#N)Cc2ccc(OCCN)c(c2)-c2cc1ccc2OCCN.O=C(O)C(F)(F)F.O=C(O)C(F)(F)F.O=C(O)C(F)(F)F.O=C(O)C(F)(F)F
Acinetobacter baumannii [1]
  MIC: 0.5 µg/mL
Klebsiella pneumoniae [2]
  MIC: 0.125 µg/mL
Escherichia coli [3]
  MIC: 0.06 µg/mL
Escherichia coli [4]
  MIC: 0.06 µg/mL
Pseudomonas aeruginosa [5]
  MIC: 4 µg/mL
Klebsiella pneumoniae [6]
  MIC: 0.125 µg/mL
Escherichia coli [7]
  MIC: ≤ 0.03 µg/mL
Pseudomonas aeruginosa [8]
  MIC: 4 µg/mL
Acinetobacter baumannii [9]
  MIC: 0.5 µg/mL
Klebsiella pneumoniae [10]
  MIC: 0.125 µg/mL

## Cc1nc(-c2ccc(SC(C)(C)C)cc2)ncc1C(=O)N[C@@H](CCN)C(=O)N(C)[C@@H]1C(=O)N[C@@H](C)C(=O)N[C@H](C(=O)NCC#N)Cc2ccc(OCCN)c(c2)-c2cc1ccc2OCCN.O=C(O)C(F)(F)F.O=C(O)C(F)(F)F.O=C(O)C(F)(F)F.O=C(O)C(F)(F)F
Acinetobacter baumannii [1]
  MIC: 1 µg/mL
Klebsiella pneumoniae [2]
  MIC: 0.06 µg/mL
Escherichia coli [3]
  MIC: 0.06 µg/mL
Escherichia coli [4]
  MIC: 0.125 µg/mL
Pseudomonas aeruginosa [5]
  MIC: 16 µg/mL
Klebsiella pneumoniae [6]
  MIC: 0.06 µg/mL
Escherichia coli [7]
  MIC: ≤ 0.03 µg/mL
Pseudomonas aeruginosa [8]
  MIC: 16 µg/mL
Acinetobacter baumannii [9]
  MIC: 2 µg/mL
Klebsiella pneumoniae [10]
  MIC: 0.125 µg/mL

## Cc1nc(-c2ccc(CSSC(C)(C)C)cc2)ccc1C(=O)N[C@@H](CCN)C(=O)N(C)[C@@H]1C(=O)N[C@@H](C)C(=O)N[C@H](C(=O)NCC#N)Cc2ccc(OCCN)c(c2)-c2cc1ccc2OCCN.O=C(O)C(F)(F)F.O=C(O)C(F)(F)F.O=C(O)C(F)(F)F.O=C(O)C(F)(F)F
Acinetobacter baumannii [1]
  MIC: 1 µg/mL
Klebsiella pneumoniae [2]
  MIC: 0.125 µg/mL
Escherichia coli [3]
  MIC: 0.125 µg/mL
Escherichia coli [4]
  MIC: 0.25 µg/mL
Pseudomonas aeruginosa [5]
  MIC: 8 µg/mL
Klebsiella pneumoniae [6]
  MIC: 0.06 µg/mL
Escherichia coli [7]
  MIC: ≤ 0.03 µg/mL
Pseudomonas aeruginosa [8]
  MIC: 8 µg/mL
Acinetobacter baumannii [9]
  MIC: 1 µg/mL
Klebsiella pneumoniae [10]
  MIC: 0.125 µg/mL

## Cc1nc(-c2ccc(CSSC(C)C)cc2)ncc1C(=O)N[C@@H](CCN)C(=O)N(C)[C@@H]1C(=O)N[C@@H](C)C(=O)N[C@H](C(=O)NCC#N)Cc2ccc(OCCN)c(c2)-c2cc1ccc2OCCN.O=C(O)C(F)(F)F.O=C(O)C(F)(F)F.O=C(O)C(F)(F)F.O=C(O)C(F)(F)F
Acinetobacter baumannii [1]
  MIC: 0.125 µg/mL
Klebsiella pneumoniae [2]
  MIC: 0.06 µg/mL
Escherichia coli [3]
  MIC: 0.06 µg/mL
Escherichia coli [4]
  MIC: 0.06 µg/mL
Pseudomonas aeruginosa [5]
  MIC: 4 µg/mL
Klebsiella pneumoniae [6]
  MIC: 0.06 µg/mL
Escherichia coli [7]
  MIC: ≤ 0.03 µg/mL
Pseudomonas aeruginosa [8]
  MIC: 2 µg/mL
Acinetobacter baumannii [9]
  MIC: 0.5 µg/mL
Klebsiella pneumoniae [10]
  MIC: 0.125 µg/mL

## CCSSc1ccc(-c2ncc(C(=O)N[C@@H](CCN)C(=O)N(C)[C@@H]3C(=O)N[C@@H](C)C(=O)N[C@H](C(=O)NCC#N)Cc4ccc(OCCN)c(c4)-c4cc3ccc4OCCN)c(C)n2)cc1.O=C(O)C(F)(F)F.O=C(O)C(F)(F)F.O=C(O)C(F)(F)F.O=C(O)C(F)(F)F
Acinetobacter baumannii [1]
  MIC: 1 µg/mL
Klebsiella pneumoniae [2]
  MIC: 0.06 µg/mL
Escherichia coli [3]
  MIC: 0.06 µg/mL
Escherichia coli [4]
  MIC: 0.125 µg/mL
Pseudomonas aeruginosa [5]
  MIC: 8 µg/mL
Klebsiella pneumoniae [6]
  MIC: 0.125 µg/mL
Escherichia coli [7]
  MIC: ≤ 0.03 µg/mL
Pseudomonas aeruginosa [8]
  MIC: 8 µg/mL
Acinetobacter baumannii [9]
  MIC: 2 µg/mL
Klebsiella pneumoniae [10]
  MIC: 0.125 µg/mL

## CCSSCc1ccc(-c2ncc(C(=O)N[C@@H](CCN)C(=O)N(C)[C@@H]3C(=O)N[C@@H](C)C(=O)N[C@H](C(=O)NCC#N)Cc4ccc(OCCN)c(c4)-c4cc3ccc4OCCN)c(C)n2)cc1.O=C(O)C(F)(F)F.O=C(O)C(F)(F)F.O=C(O)C(F)(F)F.O=C(O)C(F)(F)F
Acinetobacter baumannii [1]
  MIC: 0.5 µg/mL
Klebsiella pneumoniae [2]
  MIC: 0.06 µg/mL
Escherichia coli [3]
  MIC: ≤ 0.03 µg/mL
Escherichia coli [4]
  MIC: 0.06 µg/mL
Pseudomonas aeruginosa [5]
  MIC: 16 µg/mL
Klebsiella pneumoniae [6]
  MIC: 0.125 µg/mL
Escherichia coli [7]
  MIC: ≤ 0.03 µg/mL
Pseudomonas aeruginosa [8]
  MIC: 8 µg/mL
Acinetobacter baumannii [9]
  MIC: 1 µg/mL
Klebsiella pneumoniae [10]
  MIC: 0.125 µg/mL

## CSSC1(c2ccc(-c3ncc(C(=O)N[C@@H](CCN)C(=O)N(C)[C@@H]4C(=O)N[C@@H](C)C(=O)N[C@H](C(=O)NCC#N)Cc5ccc(OCCN)c(c5)-c5cc4ccc5OCCN)c(C)n3)cc2)CCC1.O=C(O)C(F)(F)F.O=C(O)C(F)(F)F.O=C(O)C(F)(F)F.O=C(O)C(F)(F)F
Acinetobacter baumannii [1]
  MIC: 0.25 µg/mL
Klebsiella pneumoniae [2]
  MIC: 0.06 µg/mL
Escherichia coli [3]
  MIC: 0.06 µg/mL
Escherichia coli [4]
  MIC: 0.125 µg/mL
Pseudomonas aeruginosa [5]
  MIC: 2 µg/mL
Klebsiella pneumoniae [6]
  MIC: 0.125 µg/mL
Escherichia coli [7]
  MIC: ≤ 0.03 µg/mL
Pseudomonas aeruginosa [8]
  MIC: 16 µg/mL
Acinetobacter baumannii [9]
  MIC: 0.5 µg/mL
Klebsiella pneumoniae [10]
  MIC: 0.125 µg/mL

## CSSCc1ccc(-c2ncc(C(=O)N[C@@H](CCN)C(=O)N(C)[C@@H]3C(=O)N[C@@H](C)C(=O)N[C@H](C(=O)NCC#N)Cc4ccc(OCCN)c(c4)-c4cc3ccc4OCCN)c(C)n2)cc1.O=C(O)C(F)(F)F.O=C(O)C(F)(F)F.O=C(O)C(F)(F)F.O=C(O)C(F)(F)F
Acinetobacter baumannii [1]
  MIC: 1 µg/mL
Klebsiella pneumoniae [2]
  MIC: 0.25 µg/mL
Escherichia coli [3]
  MIC: 0.5 µg/mL
Escherichia coli [4]
  MIC: 0.25 µg/mL
Pseudomonas aeruginosa [5]
  MIC: 64 µg/mL
Klebsiella pneumoniae [6]
  MIC: 0.5 µg/mL
Escherichia coli [7]
  MIC: 0.06 µg/mL
Pseudomonas aeruginosa [8]
  MIC: 64 µg/mL
Acinetobacter baumannii [9]
  MIC: 4 µg/mL
Klebsiella pneumoniae [10]
  MIC: 0.5 µg/mL
